{"source": "ChEMBL document CHEMBL5726791", "about": "“Inhibitors of lysine specific demethylase-1” (2018)", "biological_target": "Lysine-specific histone demethylase 1A (Homo sapiens, UniProt O60341)", "test": "In Vitro Enzyme Inhibition Assay: The enzymatic assay of LSD1 activity is based on Time Resolved-Fluorescence Resonance Energy Transfer (TR-FRET) detection. The inhibitory properties of compounds to LSD1 were determined in 384-well plate format under the following reaction conditions: 0.1-0.5 nM LSD1, 50 nM H3K4mel-biotin labeled peptide (Anaspec cat #64355), 2 μM FAD in assay buffer of 50 mM HEPES, pH7.3, 10 mM NaCl, 0.005% Brij35, 0.5 mM TCEP, 0.2 mg/ml BSA. Reaction product was determined quantitatively by TR-FRET after the addition of detection reagent Phycolink Streptavidin-allophycocyanin (Prozyme) and Europium-anti-unmodified histone H3 lysine 4 (H3K4) antibody (PerkinElmer) in the presence of LSD1 inhibitor such as 1.8 mM of Tranylcypromine hydrochloride (2-PCPA) in LANCE detection buffer (PerkinElmer) to final concentration of 12.5 nM and 0.25 nM respectively."}
{"smiles": "Cn1ncc2cc(-c3sc(N4CC[C@@H]5CNC[C@@H]5CC4)nc3-c3ccc(C#N)cc3)ccc21", "values": [{"measurement": "IC50", "value": "< 100", "unit": "nM"}]}
